Results reported in the NIST ThermoML archive (doi:10.1021/acs.jced.6b01058).
Numbers after ± are expanded uncertainties.

Experiments:
[1] = wn = mass fraction of the nth substance listed; conditions: 85 kPa, Liquid, Vibrating tube method
[2] = 85 kPa, Liquid, Vibrating tube method
[3] = mn = molality of the nth substance listed, in mol/kg; conditions: 85 kPa, Liquid, Vibrating tube method

## CCCO [propan-1-ol] + O
[1]; 298.15 K, w1 = 0.04
  mass density: 990.59 ± 2.8 kg/m3
[1]; 298.15 K, w1 = 0.08
  mass density: 985.46 ± 3 kg/m3
[1]; 298.15 K, w1 = 0.16
  mass density: 973.64 ± 3.1 kg/m3
[1]; 303.15 K, w1 = 0.04
  mass density: 989.14 ± 2.8 kg/m3
[1]; 303.15 K, w1 = 0.08
  mass density: 983.86 ± 3.1 kg/m3
[1]; 303.15 K, w1 = 0.16
  mass density: 971.45 ± 3.3 kg/m3
[1]; 308.15 K, w1 = 0.04
  mass density: 987.49 ± 2.8 kg/m3
[1]; 308.15 K, w1 = 0.08
  mass density: 982.13 ± 3.3 kg/m3
[1]; 308.15 K, w1 = 0.16
  mass density: 969.08 ± 3.4 kg/m3
[1]; 313.15 K, w1 = 0.04
  mass density: 985.62 ± 2.9 kg/m3
[1]; 313.15 K, w1 = 0.08
  mass density: 980.12 ± 3.3 kg/m3
[1]; 313.15 K, w1 = 0.16
  mass density: 966.84 ± 3.5 kg/m3

## CO [methanol] + O
[1]; 298.15 K, w1 = 0.04
  mass density: 989.97 ± 3.7 kg/m3
[1]; 298.15 K, w1 = 0.08
  mass density: 982.92 ± 3.6 kg/m3
[1]; 298.15 K, w1 = 0.16
  mass density: 969.42 ± 3.5 kg/m3
[1]; 303.15 K, w1 = 0.04
  mass density: 988.62 ± 3.7 kg/m3
[1]; 303.15 K, w1 = 0.08
  mass density: 981.47 ± 3.6 kg/m3
[1]; 303.15 K, w1 = 0.16
  mass density: 967.61 ± 3.6 kg/m3
[1]; 308.15 K, w1 = 0.04
  mass density: 987.03 ± 3.7 kg/m3
[1]; 308.15 K, w1 = 0.08
  mass density: 979.91 ± 3.6 kg/m3
[1]; 308.15 K, w1 = 0.16
  mass density: 965.92 ± 3.7 kg/m3
[1]; 313.15 K, w1 = 0.04
  mass density: 985.22 ± 3.7 kg/m3
[1]; 313.15 K, w1 = 0.08
  mass density: 978.12 ± 3.7 kg/m3
[1]; 313.15 K, w1 = 0.16
  mass density: 963.68 ± 3.8 kg/m3

## CCO [ethanol] + O
[1]; 298.15 K, w1 = 0.04
  mass density: 990.13 ± 3.3 kg/m3
[1]; 298.15 K, w1 = 0.08
  mass density: 983.9 ± 3.1 kg/m3
[1]; 298.15 K, w1 = 0.16
  mass density: 972.57 ± 3 kg/m3
[1]; 303.15 K, w1 = 0.04
  mass density: 988.79 ± 3.3 kg/m3
[1]; 303.15 K, w1 = 0.08
  mass density: 982.43 ± 3.2 kg/m3
[1]; 303.15 K, w1 = 0.16
  mass density: 970.69 ± 3.1 kg/m3
[1]; 308.15 K, w1 = 0.04
  mass density: 987.24 ± 3.3 kg/m3
[1]; 308.15 K, w1 = 0.08
  mass density: 980.77 ± 3.2 kg/m3
[1]; 308.15 K, w1 = 0.16
  mass density: 968.6 ± 3.2 kg/m3
[1]; 313.15 K, w1 = 0.04
  mass density: 985.42 ± 3.4 kg/m3
[1]; 313.15 K, w1 = 0.08
  mass density: 978.85 ± 3.3 kg/m3
[1]; 313.15 K, w1 = 0.16
  mass density: 966.4 ± 3.3 kg/m3

## O [water]
[2]; 298.15 K
  mass density: 997.29 ± 1 kg/m3
[2]; 303.15 K
  mass density: 995.9 ± 1 kg/m3
[2]; 308.15 K
  mass density: 994.27 ± 1 kg/m3
[2]; 313.15 K
  mass density: 992.46 ± 1 kg/m3

## CCCCCCCCCCCC(=O)N(C)CC(=O)[O-].[Na+] [sodium [dodecanoyl(methyl)amino]acetate] + O
[3]; 298.15 K, m1 = 0.02
  mass density: 998.13 ± 1 kg/m3
[3]; 298.15 K, m1 = 0.03
  mass density: 998.42 ± 1 kg/m3
[3]; 298.15 K, m1 = 0.04
  mass density: 998.73 ± 1 kg/m3
[3]; 298.15 K, m1 = 0.05
  mass density: 999.03 ± 1 kg/m3
[3]; 298.15 K, m1 = 0.06
  mass density: 999.43 ± 1 kg/m3
[3]; 298.15 K, m1 = 0.07
  mass density: 999.67 ± 1 kg/m3
[3]; 298.15 K, m1 = 0.08
  mass density: 1000.07 ± 1 kg/m3
[3]; 298.15 K, m1 = 0.09
  mass density: 1000.37 ± 1 kg/m3
[3]; 303.15 K, m1 = 0.02
  mass density: 996.67 ± 1 kg/m3
[3]; 303.15 K, m1 = 0.03
  mass density: 996.99 ± 1 kg/m3
[3]; 303.15 K, m1 = 0.04
  mass density: 997.32 ± 1 kg/m3
[3]; 303.15 K, m1 = 0.05
  mass density: 997.61 ± 1 kg/m3
[3]; 303.15 K, m1 = 0.06
  mass density: 997.96 ± 1 kg/m3
[3]; 303.15 K, m1 = 0.07
  mass density: 998.27 ± 1 kg/m3
[3]; 303.15 K, m1 = 0.08
  mass density: 998.59 ± 1 kg/m3
[3]; 303.15 K, m1 = 0.09
  mass density: 998.88 ± 1 kg/m3
[3]; 308.15 K, m1 = 0.02
  mass density: 995.04 ± 1 kg/m3
[3]; 308.15 K, m1 = 0.03
  mass density: 995.33 ± 1 kg/m3
[3]; 308.15 K, m1 = 0.04
  mass density: 995.67 ± 1 kg/m3
[3]; 308.15 K, m1 = 0.05
  mass density: 995.93 ± 1 kg/m3
[3]; 308.15 K, m1 = 0.06
  mass density: 996.27 ± 1 kg/m3
[3]; 308.15 K, m1 = 0.07
  mass density: 996.56 ± 1 kg/m3
[3]; 308.15 K, m1 = 0.08
  mass density: 996.88 ± 1 kg/m3
[3]; 308.15 K, m1 = 0.09
  mass density: 997.14 ± 1 kg/m3
[3]; 313.15 K, m1 = 0.02
  mass density: 993.18 ± 1 kg/m3
[3]; 313.15 K, m1 = 0.03
  mass density: 993.48 ± 1 kg/m3
[3]; 313.15 K, m1 = 0.04
  mass density: 993.8 ± 1 kg/m3
[3]; 313.15 K, m1 = 0.05
  mass density: 994.06 ± 1 kg/m3
[3]; 313.15 K, m1 = 0.06
  mass density: 994.41 ± 1 kg/m3
[3]; 313.15 K, m1 = 0.07
  mass density: 994.7 ± 1 kg/m3
[3]; 313.15 K, m1 = 0.08
  mass density: 994.95 ± 1 kg/m3
[3]; 313.15 K, m1 = 0.09
  mass density: 995.27 ± 1 kg/m3
